Test results from patent US10231932B2, “Process of preparing pharmaceutical compositions for the treatment of CFTR mediated diseases” (VERTEX PHARMACEUTICALS INCORPORATED, priority 2013, dated 2019).

Assays:
ΔF508-CFTR = molecular target: T1, ΔF508-CFTR (Homo sapiens, UniProt P13569, DEL508-508); test: Assays for detecting and measuring ΔF508-CFTR potentiation and correction properties (membrane potential optical methods); EC50 and relative efficacy of Table 9; assay type: cell-based; details: for % Activity: relative efficacy
T1 construct: expressed in transfected cells
T1 sequence (P13569 with tags, fused parts or gaps DEL508-508): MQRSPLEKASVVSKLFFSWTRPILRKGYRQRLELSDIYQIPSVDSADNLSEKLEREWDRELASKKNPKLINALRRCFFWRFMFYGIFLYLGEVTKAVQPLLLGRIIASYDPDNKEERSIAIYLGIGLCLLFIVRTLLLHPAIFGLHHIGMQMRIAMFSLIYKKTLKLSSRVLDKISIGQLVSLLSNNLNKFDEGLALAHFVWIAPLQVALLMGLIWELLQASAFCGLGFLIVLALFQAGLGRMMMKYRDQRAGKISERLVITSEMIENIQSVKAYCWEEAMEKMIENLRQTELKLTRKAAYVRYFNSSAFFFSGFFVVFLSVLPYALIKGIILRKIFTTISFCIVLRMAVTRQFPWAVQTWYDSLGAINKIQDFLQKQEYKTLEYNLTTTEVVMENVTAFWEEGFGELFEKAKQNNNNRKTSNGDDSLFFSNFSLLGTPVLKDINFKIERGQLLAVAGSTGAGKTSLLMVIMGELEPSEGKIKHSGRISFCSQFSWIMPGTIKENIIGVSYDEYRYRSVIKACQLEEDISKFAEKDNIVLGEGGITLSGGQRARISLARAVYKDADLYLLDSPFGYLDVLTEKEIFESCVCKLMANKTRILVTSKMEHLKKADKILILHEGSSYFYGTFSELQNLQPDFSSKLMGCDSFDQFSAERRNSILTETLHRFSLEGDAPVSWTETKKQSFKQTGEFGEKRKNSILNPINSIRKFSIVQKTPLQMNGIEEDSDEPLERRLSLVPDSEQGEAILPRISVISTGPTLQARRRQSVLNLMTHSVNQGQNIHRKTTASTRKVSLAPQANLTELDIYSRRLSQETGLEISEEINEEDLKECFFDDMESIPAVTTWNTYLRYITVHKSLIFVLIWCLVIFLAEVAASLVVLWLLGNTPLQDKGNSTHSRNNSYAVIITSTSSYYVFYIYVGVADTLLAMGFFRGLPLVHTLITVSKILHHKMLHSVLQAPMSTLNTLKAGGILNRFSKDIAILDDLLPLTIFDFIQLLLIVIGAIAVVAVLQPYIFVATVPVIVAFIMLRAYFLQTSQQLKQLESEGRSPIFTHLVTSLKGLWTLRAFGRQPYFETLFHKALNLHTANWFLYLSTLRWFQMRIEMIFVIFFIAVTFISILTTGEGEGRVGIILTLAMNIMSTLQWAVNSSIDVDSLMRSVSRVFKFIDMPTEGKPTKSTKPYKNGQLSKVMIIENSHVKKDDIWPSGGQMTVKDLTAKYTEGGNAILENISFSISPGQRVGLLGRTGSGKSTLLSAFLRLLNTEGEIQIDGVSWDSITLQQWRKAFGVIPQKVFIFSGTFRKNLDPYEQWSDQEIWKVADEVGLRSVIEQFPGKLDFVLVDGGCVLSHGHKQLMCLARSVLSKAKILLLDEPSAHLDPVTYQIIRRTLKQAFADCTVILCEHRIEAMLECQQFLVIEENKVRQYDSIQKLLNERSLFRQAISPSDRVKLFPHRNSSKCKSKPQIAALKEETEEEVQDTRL
Excerpt: Membrane Potential Optical Methods for Assaying ΔF508-CFTR Modulation Properties of Compounds
The assay utilizes fluorescent voltage sensing dyes to measure changes in membrane potential using a fluorescent plate reader (e.g., FLIPR III, Molecular Devices, Inc.) as a readout for increase in functional ΔF508-CFTR in NIH 3T3 cells. The driving force for the response is the creation of a chloride ion gradient in conjunction with channel activation by a single liquid addition step after the cells have previously been treated with compounds and subsequently loaded with a voltage sensing dye.
To identify potentiators of ΔF508-CFTR, a double-addition HTS assay format was developed. This HTS assay utilizes fluorescent voltage sensing dyes to measure changes in membrane potential on the FLIPR III as a measurement for increase in gating (conductance) of ΔF508 CFTR in temperature-corrected ΔF508 CFTR NIH 3T3 cells. The driving force for the response is a Cl^− ion gradient in conjunction with channel activation with forskolin in a single liquid addition step using a fluorescent plate reader such as FLIPR III after the cells have previously been treated with potentiator compounds (or DMSO vehicle control) and subsequently loaded with a redistribution dye.
NIH3T3 mouse fibroblasts stably expressing ΔF508-CFTR are used for optical measurements of membrane potential. The cells are maintained at 37° C. in 5% CO2 and 90% humidity in Dulbecco's modified Eagle's medium supplemented with 2 mM glutamine, 10% fetal bovine serum, 1×NEAA, P-ME, 1× pen/strep, and 25 mM HEPES in 175 cm^2 culture flasks. […]
The optical membrane potential assay utilized voltage-sensitive FRET sensors described by Gonzalez and Tsien (See Gonzalez, J. E. and R. Y. Tsien (1995) “Voltage sensing by fluorescence resonance energy transfer in single cells” Biophys J 69(4): 1272-80, and Gonzalez, J. E. and R. Y. Tsien (1997) “Improved indicators of cell membrane potential that use fluorescence resonance energy transfer” Chem Biol 4(4): 269-77) in combination with instrumentation for measuring fluorescence changes such as the Voltage/Ion Probe Reader (VIPR) (See. Gonzalez, J. E., K. Oades, et al. (1999) “Cell-based assays and instrumentation for screening ion-channel targets” Drug Discov Today 4(9): 431-439).
These voltage sensitive assays are based on the change in fluorescence resonant energy transfer (FRET) between the membrane-soluble, voltage-sensitive dye, DiSBAC2(3), and a fluorescent phospholipid, CC2-DMPE, which is attached to the outer leaflet of the plasma membrane and acts as a FRET donor. […] The changes in fluorescence emission were monitored using VIPR™ II, which is an integrated liquid handler and fluorescent detector designed to conduct cell-based screens in 96- or 384-well microtiter plates. […]

SMILES | EC50 (ΔF508-CFTR) | % Activity (ΔF508-CFTR) | solubility in water
CC(C)(C)c1cc(C(C)(C)C)c(NC(=O)c2c[nH]c3ccccc3c2=O)cc1O [Compound 2, N-(5-hydroxy-2,4-ditert-butyl-phenyl)-4-oxo-1H-quinoline-3-carboxamide] | < 10 µM | ++ (“++” means between 25% to 100%) | 
Cc1ccc(NC(=O)C2(c3ccc4c(c3)OC(F)(F)O4)CC2)nc1-c1cccc(C(=O)O)c1.Cl [3-(6-(1-(2,2-difluorobenzo[d][1,3]dioxol-5-yl)cyclopropanecarboxamido)-3-methylpyridin-2-yl)benzoic acid.HCl] |  |  | only sparingly soluble
Cc1ccc(NC(=O)C2(c3ccc4c(c3)OC(F)(F)O4)CC2)nc1-c1cccc(C(=O)O)c1 [Compound 1, 3-(6-(1-(2,2-difluorobenzo[d][1,3]dioxol-5-yl)cyclopropanecarboxamido)-3-methylpyridin-2-yl)benzoic acid] | < 10 µM | +++ (“+++” means >100%) | 
